The subject of the experiment is CD2F1 mice, L1210 leukemia ip, survival T/C. The experiment in a line: NCI In Vivo Anticancer Drug Screen. Data for tumor model L1210 Leukemia (intraperitoneal) in CD2F1 (CDF1) mice. Conditions: higher = longer survival. The essentials:
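Ratio T/C, where T is the treated-group value and C the vehicle-dosed control value, from mice implanted with a transplantable tumor.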

Setting [1] is: endpoint: mean survival time, dose: 100.0 mg/kg/injection, schedule: Q01DX001 (ip), vehicle: saline with Tween-80.
The mark [2] stands for this setting: endpoint: mean survival time, dose: 200.0 mg/kg/injection, schedule: Q01DX001 (ip), vehicle: saline with Tween-80.
[3] abbreviates: endpoint: mean survival time, dose: 400.0 mg/kg/injection, schedule: Q01DX001 (ip), vehicle: saline with Tween-80.
Where [4] appears, read: endpoint: mean survival time, dose: 50.0 mg/kg/injection, schedule: Q01DX009 (ip), vehicle: saline with Tween-80.
Where [5] appears, read: endpoint: mean survival time, dose: 100.0 mg/kg/injection, schedule: Q01DX009 (ip), vehicle: saline with Tween-80.
The mark [6] stands for this setting: endpoint: mean survival time, dose: 200.0 mg/kg/injection, schedule: Q01DX009 (ip), vehicle: saline with Tween-80.
[7] abbreviates: endpoint: mean survival time, dose: 100.0 mg/kg/injection, schedule: Q04DX003 (ip), vehicle: saline with Tween-80.
[8] abbreviates: endpoint: mean survival time, dose: 200.0 mg/kg/injection, schedule: Q04DX003 (ip), vehicle: saline with Tween-80.
The mark [9] stands for this setting: endpoint: mean survival time, dose: 400.0 mg/kg/injection, schedule: Q04DX003 (ip), vehicle: saline with Tween-80.

Inconclusive results and toxic doses are left out.

For the compound `CC(=O)NCc1cccc([N+](=O)[O-])c1`, the T/C is, setting by setting: (endpoint: mean survival time, dose: 25.0 mg/kg/injection, schedule: Q01DX005 (ip), vehicle: suspension in saline) 97 % of control; (endpoint: mean survival time, dose: 50.0 mg/kg/injection, schedule: Q01DX005 (ip), vehicle: suspension in saline) 106 % of control; (endpoint: mean survival time, dose: 100.0 mg/kg/injection, schedule: Q01DX005 (ip), vehicle: suspension in saline) 105 % of control; (endpoint: mean survival time, dose: 200.0 mg/kg/injection, schedule: Q01DX005 (ip), vehicle: suspension in saline) 95 % of control; (endpoint: mean survival time, dose: 400.0 mg/kg/injection, schedule: Q01DX005 (ip), vehicle: suspension in saline) 95 % of control.

As for `CC(=O)OCC(=O)[C@@]12OC(C)(C)O[C@@H]1C[C@H]1[C@@H]3CC(C=O)=C4C=C(OCCCl)CC[C@]4(C)[C@@]3(F)[C@@H](O)C[C@@]12C`, the T/C was 103 % of control (endpoint: mean survival time, dose: 100.0 mg/kg/injection, schedule: Q04DX003 (ip), vehicle: acetone); 105 % of control (endpoint: mean survival time, dose: 200.0 mg/kg/injection, schedule: Q04DX003 (ip), vehicle: acetone); 102 % of control (endpoint: mean survival time, dose: 400.0 mg/kg/injection, schedule: Q04DX003 (ip), vehicle: acetone).

On to `CC1(C)N=C(N)N=C(N)N1c1cccc(/C=C/c2ccc([N+](=O)[O-])cc2)c1`, for which the T/C (endpoint: mean survival time, dose: 100.0 mg/kg/injection, schedule: Q04DX002 (ip), vehicle: Klucel (hydroxypropylcellulose) (HPC)) was 103 % of control; the T/C (endpoint: mean survival time, dose: 200.0 mg/kg/injection, schedule: Q04DX002 (ip), vehicle: Klucel (hydroxypropylcellulose) (HPC)) was 107 % of control; the T/C (endpoint: mean survival time, dose: 400.0 mg/kg/injection, schedule: Q04DX002 (ip), vehicle: Klucel (hydroxypropylcellulose) (HPC)) is 95 % of control.

Consider `O=C(OCCO)c1oc2ccccc2c1OCCO`, for which the T/C reads like this: under setting [1], 98 % of control; under setting [2], 98 % of control; under setting [3], 102 % of control.

Regarding `CN(C)C/C(=N\Oc1ccc([N+](=O)[O-])cc1[N+](=O)[O-])c1ccc(Cl)cc1`, the T/C is, setting by setting: under setting [4], 91 % of control; under setting [1], 98 % of control; under setting [5], 88 % of control; under setting [2], 102 % of control; under setting [6], 91 % of control; under setting [3], 95 % of control.

On to `CCOC(=O)Nc1cc(NC(=O)OCC)cc([N+](=O)[O-])c1`, for which the T/C reads like this: under setting [5], 98 % of control; under setting [6], 98 % of control; (endpoint: mean survival time, dose: 400.0 mg/kg/injection, schedule: Q01DX009 (ip), vehicle: saline with Tween-80) 106 % of control.

`CC1(C)SC(C(NC(=O)Cc2ccccc2)C(=O)O)NC1C(=O)O` (stereo not given): the T/C is 101 % of control under setting [7], 103 % of control under setting [8] and 95 % of control under setting [9].

With `O=C(O)c1c2c(nc3ccccc13)-c1ccccc1C1(CCCC1)C2`, the T/C under setting [7] is 92 % of control and the T/C under setting [8] was 99 % of control.

For the compound `O=C1CC2CC=CCC2C(=O)O1` (stereo not given), the T/C (endpoint: mean survival time, dose: 75.0 mg/kg/injection, schedule: Q01DX001 (ip), vehicle: saline) is 101 % of control and the T/C (endpoint: mean survival time, dose: 150.0 mg/kg/injection, schedule: Q01DX001 (ip), vehicle: saline) is 98 % of control.

In the case of `CC(C)(C)C(=O)CC(=O)C(C)(C)C.CC(C)(C)C(=O)CC(=O)C(C)(C)C.[Cu]`, the T/C (endpoint: mean survival time, dose: 9.5 mg/kg/injection, schedule: Q01DX009 (ip), vehicle: saline with Tween-80) was 98 % of control; the T/C (endpoint: mean survival time, dose: 9.5 mg/kg/injection, schedule: Q04DX003 (ip), vehicle: saline with Tween-80) was 90 % of control; the T/C (endpoint: mean survival time, dose: 19.0 mg/kg/injection, schedule: Q01DX009 (ip), vehicle: saline with Tween-80) is 102 % of control; the T/C (endpoint: mean survival time, dose: 19.0 mg/kg/injection, schedule: Q04DX003 (ip), vehicle: saline with Tween-80) was 90 % of control; the T/C (endpoint: mean survival time, dose: 38.0 mg/kg/injection, schedule: Q04DX003 (ip), vehicle: saline with Tween-80) is 91 % of control.

For the compound `O=S(=O)(F)c1ccc(-c2cc(Cl)c3cc(F)ccc3n2)cc1`, the T/C runs as follows: under setting [1], 98 % of control; under setting [2], 98 % of control; under setting [3], 94 % of control.

For `C(=Nc1ccc2ccccc2c1)c1ccccc1`, the T/C reads like this: (endpoint: mean survival time, dose: 50.0 mg/kg/injection, schedule: Q04DX002 (ip), vehicle: saline with Tween-80) 91 % of control; (endpoint: mean survival time, dose: 100.0 mg/kg/injection, schedule: Q04DX002 (ip), vehicle: saline with Tween-80) 95 % of control; (endpoint: mean survival time, dose: 200.0 mg/kg/injection, schedule: Q04DX002 (ip), vehicle: saline with Tween-80) 95 % of control; (endpoint: mean survival time, dose: 400.0 mg/kg/injection, schedule: Q04DX002 (ip), vehicle: saline with Tween-80) 98 % of control.

For the compound `OC(c1ccccc1)(C1SCCCS1)C1SCCCS1`, the T/C reads like this: under setting [4], 94 % of control; under setting [5], 97 % of control; under setting [6], 94 % of control.

Regarding `O=C(OCC1OC(n2cc(C(F)(F)F)c(=O)[nH]c2=O)CC1OC(=O)c1ccc([N+](=O)[O-])cc1)c1ccc([N+](=O)[O-])cc1` (stereo not given), the T/C is 116 % of control (endpoint: median survival time, dose: 25.0 mg/kg/injection, schedule: Q01DX009 (ip), vehicle: Klucel (hydroxypropylcellulose) (HPC)) and 113 % of control (endpoint: median survival time, dose: 50.0 mg/kg/injection, schedule: Q01DX009 (ip), vehicle: Klucel (hydroxypropylcellulose) (HPC)).

Consider `O=C(O)C1CC[N-]CC1.O=C(O)C1CC[N-]CC1.[Cl][Pt+2][Cl]`, for which the T/C reads like this: (endpoint: mean survival time, dose: 50.0 mg/kg/injection, schedule: Q01DX001 (ip), vehicle: saline with Tween-80) 110 % of control; under setting [7], 107 % of control; under setting [2], 110 % of control; under setting [6], 97 % of control.

`Clc1ccc(OCC2CO2)cc1` (stereo not given): the T/C (endpoint: mean survival time, dose: 25.0 mg/kg/injection, schedule: Q04DX003 (ip), vehicle: saline with Tween-80) was 101 % of control; the T/C (endpoint: mean survival time, dose: 50.0 mg/kg/injection, schedule: Q04DX003 (ip), vehicle: saline with Tween-80) was 101 % of control; the T/C under setting [7] is 98 % of control.

Regarding `CN(C)C(C)(CO)CO`, the T/C reads like this: (endpoint: mean survival time, dose: 100.0 mg/kg/injection, schedule: Q01DX001 (ip), vehicle: saline) 98 % of control; (endpoint: mean survival time, dose: 200.0 mg/kg/injection, schedule: Q01DX001 (ip), vehicle: saline) 98 % of control; (endpoint: mean survival time, dose: 400.0 mg/kg/injection, schedule: Q01DX001 (ip), vehicle: saline) 113 % of control.

For `COC1OC2COc3ccccc3OC2C(N)C1SSC1C(OC)OC2COc3ccccc3OC2C1N` (stereo not given), the T/C is, setting by setting: (endpoint: mean survival time, dose: 75.0 mg/kg/injection, schedule: Q01DX001 (ip), vehicle: saline with Tween-80) 94 % of control; (endpoint: mean survival time, dose: 150.0 mg/kg/injection, schedule: Q01DX001 (ip), vehicle: saline with Tween-80) 95 % of control; (endpoint: mean survival time, dose: 300.0 mg/kg/injection, schedule: Q01DX001 (ip), vehicle: saline with Tween-80) 94 % of control.

In the case of `O=C(C/C(=N\N(C(=O)c1ccccc1)c1ccccc1)c1ccccc1)c1ccccc1`, the T/C under setting [7] is 92 % of control, the T/C under setting [8] is 97 % of control and the T/C under setting [9] was 100 % of control.

Regarding `CCc1ccccc1N1CCN(C(=O)c2cc(OC)c(OC)c(OC)c2)CC1`, the T/C runs as follows: (endpoint: mean survival time, dose: 100.0 mg/kg/injection, schedule: Q01DX009 (ip), vehicle: acetone) 118 % of control; (endpoint: mean survival time, dose: 150.0 mg/kg/injection, schedule: Q01DX009 (ip), vehicle: acetone) 124 % of control; (endpoint: mean survival time, dose: 225.0 mg/kg/injection, schedule: Q01DX009 (ip), vehicle: acetone) 90 % of control.

With `[N-]=[N+]=CC(=O)NCC(=O)NCCNCCO`, the T/C is 156 % of control (endpoint: mean survival time, dose: 400.0 mg/kg/injection, schedule: Q01DX009 (ip), vehicle: other); 164 % of control (endpoint: mean survival time, dose: 600.0 mg/kg/injection, schedule: Q01DX009 (ip), vehicle: other); 155 % of control (endpoint: mean survival time, dose: 800.0 mg/kg/injection, schedule: Q01DX009 (ip), vehicle: other).

As to `CCCCCCCCCC1=NC(C)(C)CN1CC(C)O` (stereo not given), the T/C is 91 % of control (endpoint: mean survival time, dose: 5.0 mg/kg/injection, schedule: Q01DX009 (ip), vehicle: saline with Tween-80); 102 % of control (endpoint: mean survival time, dose: 10.0 mg/kg/injection, schedule: Q01DX009 (ip), vehicle: saline with Tween-80); 91 % of control (endpoint: mean survival time, dose: 20.0 mg/kg/injection, schedule: Q01DX009 (ip), vehicle: saline with Tween-80).

As for `N\C([S-])=N/N=C\C(=N/N=C(\N)[S-])C(O)C(O)C(O)CO.[Pd+2]` (stereo not given), the T/C is 112 % of control under setting [4], 104 % of control under setting [5] and 89 % of control under setting [6].

Values taken from PubChem BioAssay AID256 (DTP/NCI, 2004).
